The values that follow come from patent US7595313B2, “Nitric oxide donating diuretic compounds, compositions and methods of use” (NicOx, S.A., priority 2005, dated 2009).

SMILES strings stand for the structures.

The subject of series [1] is Spontaneously Hypertensive rats (SHR). Put plainly: Blood pressure determination under in vivo conditions in the Spontaneously Hypertensive rat. As to conditions: gavage twice a day, 30 mg/kg HCT equivalent, telemetry, FIG. 2. As to the method: The effect of subchronic administration of Example 17b and hydrochlorothiazide (HCT) on blood pressure was assessed in telemeterized male Spontaneously Hypertensive rats (SHR; 9-10 weeks old; 250-300 g). Compounds were administered twice a day for 7 eight days via gavage at 30 mg/kg HCT equivalent in a 0.5% methylcellulose vehicle. Blood pressure was continuously monitored by telemetry and reported as a change in mean arterial blood pressure (MABP) over a 24 h period.

What is called melting point is the temperature of the solid-liquid transition. For `NS(=O)(=O)c1cc2c(cc1Cl)NC(CCCCO[N+](=O)[O-])NS2(=O)=O` (centres unmarked) [Example 17b, 2H-1,2,4-Benzothiadiazine-7-sulfonamide, 6-chloro-3,4-dihydro-3-[4-(nitrooxy)butyl]-, 1,1-dioxide], the melting point was in the range of 171 to 179 °C. Besides, in series [1], the “reductions in blood pressure (mean arterial blood pressure) during the treatment period, larger than with HCT” value was 5-6 mm Hg.
